The results in this text go back to patent publication US20090062273A1, “3-H-pyrazolopyridines and salts thereof, pharmaceutical compositions comprising same, methods of preparing same and uses of same” (priority 2006, published 2009).

This assay deals with T1, human insuline receptor (Ins-R) (Homo sapiens, UniProt P06213).
T1 construct: GST-tagged recombinant kinase domain of the human insuline receptor; GST; purchased ProQinase, Freiburg, Germany; host or cells: SF-9 cells
T1 sequence (P06213 1023-1298 limits assumed): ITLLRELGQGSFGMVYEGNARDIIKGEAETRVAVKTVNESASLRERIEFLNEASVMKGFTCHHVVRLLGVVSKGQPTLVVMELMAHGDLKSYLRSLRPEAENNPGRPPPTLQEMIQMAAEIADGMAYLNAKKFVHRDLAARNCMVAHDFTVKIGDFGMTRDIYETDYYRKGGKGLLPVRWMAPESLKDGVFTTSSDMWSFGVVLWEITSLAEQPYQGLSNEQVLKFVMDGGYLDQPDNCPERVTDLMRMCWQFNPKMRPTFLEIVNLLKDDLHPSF
Briefly: InsR HTRF assay (selectivity vs. Tie2 assay 2). The format is biochemical. To be noted: IC50 assay 4/IC50 assay 2. As for the experimental part:
Inhibitory activity of compounds against the kinase activity of the insulin receptor was quantified employing the Ins-R HTRF assay as described in the following paragraphs.
GST-tagged recombinant kinase domain of the human insuline receptor (Ins-R, purchase from ProQinase, Freiburg, Germany) expressed in SF-9 cells was used as kinase. As substrate for the kinase reaction biotinylated poly-(Glu,Tyr) (Cis biointernational, France) was used.
Ins-R was incubated for 20 min at 22° C. in the presence of different concentrations of test compounds in 5 μl assay buffer [50 mM Hepes/NaOH pH 7, 15 mM MnCl2, 1 mM dithiothreitol, 0.1 μM sodium ortho-vanadate, 0.015% (v/v) PEG20000, 10 μM adenosine-tri-phosphate (ATP), 0.3 μg/ml substrate, 1% (v/v) dimethylsulfoxide]. The concentration of Ins-R was adjusted depending of the activity of the enzyme lot and was chosen appropriate to have the assay in the linear range, typical concentrations were in the range of 10 pg/μL. The reaction was stopped by the addition of 5 μl of a solution of HTRF detection reagents (0.1 μM streptavidine-XLent and 1 nM PT66-Eu-Chelate, an europium-chelate labelled anti-phospho-tyrosine antibody from Perkin Elmer) in an aqueous EDTA-solution (80 mM EDTA, 0.2% (w/v) bovine serum albumin in 50 mM HEPES/NaOH pH 7.0).
The resulting mixture was incubated 1 h at 22° C. to allow the binding of the biotinylated phosphorylated peptide to the streptavidine-XLent and the PT66-Eu-Chelate. Subsequently the amount of phosphorylated substrate was evaluated by measurement of the resonance energy transfer from the PT66-Eu-Chelate to the streptavidine-XLent. Therefore, the fluorescence emissions at 620 nm and 665 nm after excitation at 350 nm was measured in a HTRF reader, e.g. a Rubystar (BMG Labtechnologies, Offenburg, Germany) or a ViewLux (Perkin-Elmer). The ratio of the emissions at 665 nm and at […] was taken as the measure for the amount of phosphorylated substrate. The data were normalised (enzyme reaction without inhibitor=0% inhibition, all other assay components but no enzyme=100% inhibition) and IC50 values were calculated by a 4 parameter fit using an inhouse software.
Background: In TR-FRET formats the signal depends on donor and acceptor labels being close together.
As for `O=C(Nc1cccc(C(F)(F)F)c1)Nc1ccc(-c2cncc3c2cnn3CCO)cc1F` [Example 8.5, 1-{2-Fluoro-4-[1-(2-hydroxy-ethyl)-1H-pyrazolo[3,4-c]pyridin-4-yl]-phenyl}-3-(3-trifluoromethyl-phenyl)-urea], the “Selectivity vs. InsR” value is over 50fold. With `CN1CCN(Cc2ccc(NC(=O)Nc3ccc(-c4cncc5c4cnn5CCO)cc3)cc2C(F)(F)F)CC1` [Example 8.6, 1-{4-[1-(2-Hydroxy-ethyl)-1H-pyrazolo[3,4-c]pyridin-4-yl]-phenyl}-3-[4-(4-methyl-piperazin-1-ylmethyl)-3-trifluoromethyl-phenyl]-urea], the “Selectivity vs. InsR” value is on record as over 50fold. For `CCn1ncc2c(-c3ccc(NC(=O)Nc4cc(C(F)(F)F)ccc4F)cc3)cncc21` [Example 10.5, 1-[4-(1-Ethyl-1H-pyrazolo[3,4-c]pyridin-4-yl)-phenyl]3-(2-fluoro-5-trifluoromethyl-phenyl)-urea], the “Selectivity vs. InsR” value is on record as over 50fold. For `CCn1ncc2c(-c3ccc(NC(=O)Nc4cccc(C(F)(F)F)c4)c(F)c3)cncc21` [Example 11.1, 1-[4-(1-Ethyl-1H-pyrazolo[3,4-c]pyridin-4-yl)-2-fluoro-phenyl]-3-(3-trifluoromethyl-phenyl)-urea], the “Selectivity vs. InsR” value is over 50fold. As to `CCn1ncc2c(-c3ccc(NC(=O)Nc4cc(C(F)(F)F)ccc4F)c(F)c3)cncc21` [Example 11.2, 1-[4-(1-Ethyl-1H-pyrazolo[3,4-c]pyridin-4-yl)-2-fluoro-phenyl]-3-(2-fluoro-5-trifluoromethyl-phenyl)-urea], the “Selectivity vs. InsR” value was over 50fold. In the case of `CCn1ncc2c(-c3ccc(NC(=O)Nc4cc(C)ccc4F)c(F)c3)cncc21` [Example 11.3, 1-[4-(1-Ethyl-1H-pyrazolo[3,4-c]pyridin-4-yl)-2-fluoro-phenyl]-3-(2-fluoro-5-methyl-phenyl)-urea], the “Selectivity vs. InsR” value is given as over 50fold. For the compound `COCCn1ncc2c(-c3ccc(NC(=O)Nc4cccc(C(F)(F)F)c4)cc3)cncc21` [Example 12.1, 1-{4-[1-(2-Methoxy-ethyl)-1H-pyrazolo[3,4-c]pyridin-4-yl]-phenyl}-3-(3-trifluoromethyl-phenyl)-urea], the “Selectivity vs. InsR” value was over 50fold. As to `COCCn1ncc2c(-c3ccc(NC(=O)Nc4cc(C)ccc4F)cc3)cncc21` [Example 12.3, 1-(2-Fluoro-5-methyl-phenyl)-3-{4-[1-(2-methoxy-ethyl)-1H-pyrazolo[3,4-c]pyridin-4-yl]-phenyl}-urea], the “Selectivity vs. InsR” value was over 50fold.

For `COCCn1ncc2c(-c3ccc(NC(=O)Nc4cccc(C(F)(F)F)c4)c(F)c3)cncc21` [Example 12.4, 1-{2-Fluoro-4-[1-(2-methoxy-ethyl)-1H-pyrazolo[3,4-c]pyridin-4-yl]-phenyl}-3-(3-trifluoromethyl-phenyl)-urea], the “Selectivity vs. InsR” value is listed as over 50fold. As for `COCCn1ncc2c(-c3ccc(NC(=O)Nc4cc(C(F)(F)F)ccc4F)c(F)c3)cncc21` [Example 12.5, 1-{2-Fluoro-4-[1-(2-methoxy-ethyl)-1H-pyrazolo[3,4-c]pyridin-4-yl]-phenyl}-3-(2-fluoro-5-trifluoromethyl-phenyl)-urea], the “Selectivity vs. InsR” value is reported as over 50fold. Take `Cn1ncc2c(-c3ccc(NC(=O)Nc4cc(C(C)(C)C)on4)cc3)cncc21` [Example 13.2, 1-(5-tert-Butyl-isoxazol-3-yl)-3-[4-(1-methyl-1H-pyrazolo[3,4-c]pyridin-4-yl)-phenyl]-urea]: the “Selectivity vs. InsR” value was over 50fold. Consider `Cn1ncc2c(-c3ccc(NC(=O)Nc4cc(C(C)(C)C)nn4-c4ccccc4)cc3)cncc21` [Example 13.4, 1-(5-tert-Butyl-2-phenyl-2H-pyrazol-3-yl)-13-[4-(1-methyl-1H-pyrazolo[3,4-c]pyridin-4-yl)-phenyl]-urea], for which the “Selectivity vs. InsR” value is given as over 50fold. Turning to `CN1CCN(Cc2ccc(NC(=O)Nc3ccc(-c4cncc5c4cnn5C)cc3F)cc2C(F)(F)F)CC1` [Example 13.6, 1-[2-Fluoro-4-(1-methyl-1H-pyrazolo[3,4-c]pyridin-4-yl)-phenyl]-3-[4-(4-methyl-piperazin-1-ylmethyl)-3-trifluoromethyl-phenyl]-urea], the “Selectivity vs. InsR” value was over 50fold. As to `CN(C)c1ccc(C(F)(F)F)cc1NC(=O)Nc1ccc(-c2cncc3c2cnn3C)cc1` [Example 13.11, 1-(2-Dimethylamino-5-trifluoromethyl-phenyl)-3-[4-(1-methyl-1H-pyrazolo[3,4-c]pyridin-4-yl)-phenyl]-urea], the “Selectivity vs. InsR” value is over 50fold. On to `CN(C)C1CCN(c2ccc(C(F)(F)F)cc2NC(=O)Nc2ccc(-c3cncc4c3cnn4C)cc2)C1` (stereo not shown) [Example 13.12, 1-[2-(3-Dimethylamino-pyrrolidin-1-yl)-5-trifluoromethyl-phenyl]-3-[4-(1-methyl-1H-pyrazolo[3,4-c]pyridin-4-yl)-phenyl]-urea], for which the “Selectivity vs. InsR” value was over 50fold. As to `CN(C)CCN(C)c1ccc(C(F)(F)F)cc1NC(=O)Nc1ccc(-c2cncc3c2cnn3C)cc1` [Example 13.13, 1-{2-[(2-Dimethylamino-ethyl)-methyl-amino]-5-trifluoromethyl-phenyl}-3-[4-(1-methyl-1H-pyrazolo[3,4-c]pyridin-4-yl)-phenyl]-urea], the “Selectivity vs. InsR” value is over 50fold. Then `Cn1nc(C(C)(C)C)cc1NC(=O)Nc1ccc(-c2cncc3c2cnn3C)cc1` [Example 14.3, 1-(5-tert-Butyl-2-methyl-2H-pyrazol-3-yl)-3-[4-(1-methyl-1H-pyrazolo[3,4-c]pyridin-4-yl)-phenyl]-urea], with over 50fold; and `Cn1ncc2c(-c3ccc(NC(=O)Nc4cc(C(F)(F)F)ccn4)c(F)c3)cncc21` [Example 14.5, 1-[2-Fluoro-4-(1-methyl-1H-pyrazolo[3,4-c]pyridin-4-yl)-phenyl]-3-(4-trifluoromethyl-pyridin-2-yl)-urea], with over 50fold; and `CC(C)c1cc(NC(=O)Nc2ccc(-c3cncc4c3cnn4C)cc2)n(-c2cccc(F)c2)n1` [Example 15.1, 1-[2-(3-Fluoro-phenyl)-5-isopropyl-2H-pyrazol-3-yl]-3-[4-(1-methyl-1H-pyrazolo[3,4-c]pyridin-4-yl)-phenyl]-urea], with over 50fold. Turning to `CC(C)c1cc(NC(=O)Nc2ccc(-c3cncc4c3cnn4C)cc2F)n(-c2cccc(F)c2)n1` [Example 15.2, 1-[2-Fluoro-4-(1-methyl-1H-pyrazolo[3,4-c]pyridin-4-yl)-phenyl]-3-[2-(3-fluoro-phenyl)-5-isopropyl-2H-pyrazol-3-yl]-urea], the “Selectivity vs. InsR” value is over 50fold.

In the case of `COc1cccc(-n2nc(C(C)(C)C)cc2NC(=O)Nc2ccc(-c3cncc4c3cnn4C)cc2)c1` [Example 15.5, 1-[5-tert-Butyl-2-(3-methoxy-phenyl)-2H-pyrazol-3-yl]-3-[4-(1-methyl-1H-pyrazolo[3,4-c]pyridin-4-yl)-phenyl]-urea], the “Selectivity vs. InsR” value is over 50fold. The result for `Cn1ncc2c(-c3ccc(NC(=O)Nc4cc(C(C)(C)C)nn4-c4ccc(F)cc4)cc3)cncc21` [Example 15.7, 1-[5-tert-Butyl-2-(4-fluoro-phenyl)-2H-pyrazol-3-yl]-3-[4-(1-methyl-1H-pyrazolo[3,4-c]pyridin-4-yl)-phenyl]-urea] reads over 50fold.
